Results as given in US20110098184A1, “Competitve differntial screeing” (priority 2004, published 2011).
Bridge positions count the residues as written; N and C are the ends. Peptide text beside a SMILES is read from it.

Biological target: human stratum cornium chymotrypsin (hSCC) (Homo sapiens, UniProt P49862)
Test: Mass spectrometric screening of a protein library against immobilized hSCC in the presence of competitor Ecotin
Assay type: binding
Conditions: library 10 nM per member, competitor Ecotin at 1 nM, 100 nM, 4 hrs incubation, biotinylated hSCC on streptavidin beads
Source text: In this Example, mass spectrometric screening experiments are described. FIGS. 10-13 provide data and calculations obtained during these experiments. Inhibitors of human stratum cornium chymotrypsin (hSCC) were screened from a protein library made of BBI-loop-BLA (See e.g., U.S. patent application Ser. Nos. 10/984,270 and 10/984,410; and PCT Appln. Nos. US04/36976, US04/36979; and US04/36980), all of which are incorporated by reference herein). The protein library consisted of a protein backbone in which three non-consecutive positions were randomized (cysteine constrained) at the N-terminus of the protein. HSCC (screening target) (Swissprot, accession number P49862) was biotinylated and immobilized on streptavidin beads (MagnaBind Beads; Pierce).
HSCC was incubated with a protein library at 10 nM per library member in the presence of a competitor (Ecotin; Sigma) added at 1 nM, 10 nM, and 100 nM concentrations. Following incubation (4 hrs), the beads were washed with incubation buffer to remove nonspecific binders and specific binders were eluted with an elution solution.
The recovered binders were concentrated (vacuum concentration), resuspended in a digestion buffer, reduced, alkylated, and digested with proteolytic enzyme (Lys-c; Roche). The resulting protein digests were analyzed by capillary LC-ESI-MS/MS. […]

Chain of human stratum cornium chymotrypsin (hSCC) (P49862 30-253): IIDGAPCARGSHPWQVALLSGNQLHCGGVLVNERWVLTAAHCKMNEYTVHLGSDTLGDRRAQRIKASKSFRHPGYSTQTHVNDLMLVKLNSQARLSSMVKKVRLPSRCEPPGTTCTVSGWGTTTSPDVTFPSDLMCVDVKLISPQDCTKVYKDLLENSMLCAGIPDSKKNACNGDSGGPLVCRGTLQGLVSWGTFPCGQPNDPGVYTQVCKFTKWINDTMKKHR

C[C@@H](O)[C@@H]1NC(=O)[C@@H](NC(=O)[C@@H]2CCCN2)CSSC[C@@H](C(=O)N[C@@H](Cc2ccc(O)cc2)C(=O)NCC(=O)NCC(=O)NCC(=O)N[C@@H](CCCCN)C(=O)O)NC(=O)[C@H](CCC(N)=O)NC(=O)[C@@H]2CCCN2C(=O)[C@@H]2CCCN2C(=O)[C@H](Cc2ccc(O)cc2)NC(=O)[C@H](CO)NC(=O)[C@H](Cc2ccccc2)NC1=O [pj02] (H-PCTFSYPPQCYGGGK-OH; disulfide 2-10 (inferred); N-terminus and C-terminus assumed)
binder observed after elution (capillary LC-ESI-MS/MS): observed under all conditions
